#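 How tested: cells in 96-well plates exposed to compound for 48 hours at five concentrations. GI50: concentration for 50% inhibition of growth.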 Calls of active or inactive are those of the source. Cut-off read from the data, not from the text of the source: active = GI50 up to about 1.1 µM and inactive = higher.
# What was measured:
# Assay in all cases: DTP human tumour cell line panel, 48 h
# BT-549 = test system: BT-549
# CAKI-1 = test system: CAKI-1
# DU-145 = test system: DU-145
# HCT-15 = test system: HCT-15
# HL-60 = test system: HL-60
# HOP-62 = test system: HOP-62
# MCF7 = test system: MCF7
# Malme-3M = test system: Malme-3M
# NCI-H460 = test system: NCI-H460
# OVCAR-4 = test system: OVCAR-4
# SF-268 = test system: SF-268
# SF-539 = test system: SF-539
# SK-MEL-28 = test system: SK-MEL-28
# SK-MEL-2 = test system: SK-MEL-2
# SN12C = test system: SN12C
# TK-10 = test system: TK-10
# U-251 = test system: U-251
# UO-31 = test system: UO-31
# KM-20L2 = test system: KM-20L2
# DMS-114 = test system: DMS-114
Structure (SMILES),GI50 (BT-549),GI50 (CAKI-1),GI50 (DU-145),GI50 (HCT-15),GI50 (HL-60),GI50 (HOP-62),GI50 (MCF7),GI50 (Malme-3M),GI50 (NCI-H460),GI50 (OVCAR-4),GI50 (SF-268),GI50 (SF-539),GI50 (SK-MEL-28),GI50 (SK-MEL-2),GI50 (SN12C),GI50 (TK-10),GI50 (U-251),GI50 (UO-31),GI50 (KM-20L2),GI50 (DMS-114)
CC(=O)OC1CCC2(C)C(=CCC3C2CCC2(C)C3CC3OC4(CCC(C)CN4)C(C)C32)C1 (stereo not given),> 100 µM (inactive),> 100 µM (inactive),> 100 µM (inactive),> 100 µM,> 100 µM (inactive),> 100 µM (inactive),> 100 µM (inactive),> 100 µM (inactive),> 100 µM (inactive),> 100 µM (inactive),> 100 µM (inactive),> 100 µM (inactive),> 100 µM (inactive),> 100 µM (inactive),> 100 µM (inactive),> 100 µM (inactive),> 100 µM (inactive),> 100 µM (inactive),–,–
CC(C)(C)c1cc(C2COC(=O)COCCOCC(=O)OCCOCCO2)cc(C(C)(C)C)c1O (stereo not given),> 51.1 µM (inactive),18 µM (inactive),19.5 µM (inactive),50.2 µM,39.2 µM (inactive),36.2 µM (inactive),> 100 µM (inactive),> 100 µM (inactive),49.4 µM (inactive),> 100 µM (inactive),34 µM (inactive),> 82.8 µM (inactive),37.2 µM (inactive),> 100 µM (inactive),21.8 µM (inactive),16.5 µM (inactive),36.7 µM (inactive),15.6 µM (inactive),–,–
C=C(C)C(=O)CC[C@@H](C)[C@H]1[C@@H](OC2OC(CO)C(O)C(O)C2O)C[C@@]2(C)[C@@H]3C[C@H](O)C4C(C)(C)[C@@H](OC5OC(CO)C(O)C(O)C5O)CC[C@@]45C[C@@]35CC[C@]12C (stereo not given in full),36.6 µM (inactive),66.4 µM (inactive),> 100 µM (inactive),> 100 µM,19.7 µM (inactive),> 100 µM (inactive),> 100 µM (inactive),> 100 µM (inactive),45.8 µM (inactive),> 100 µM (inactive),> 100 µM (inactive),89.9 µM (inactive),> 100 µM (inactive),> 100 µM (inactive),68.1 µM (inactive),> 100 µM (inactive),> 100 µM (inactive),> 100 µM (inactive),–,–
CCOC(=O)CC1=N/C(=N/C(=N)N[N+](=O)[O-])SC1,–,> 100 µM (inactive),–,> 100 µM,> 100 µM (inactive),> 100 µM (inactive),–,> 100 µM (inactive),> 100 µM (inactive),> 100 µM (inactive),> 100 µM (inactive),> 100 µM (inactive),> 100 µM (inactive),> 100 µM (inactive),> 100 µM (inactive),> 100 µM (inactive),> 100 µM (inactive),> 100 µM (inactive),> 100 µM (inactive),–
CC1(Br)CC2OC3(Br)C=CC(C)(O)C2(CC1=O)C3(C)C (stereo not given),–,> 100 µM (inactive),–,> 100 µM,–,> 100 µM (inactive),–,> 100 µM (inactive),> 100 µM (inactive),> 100 µM (inactive),> 100 µM (inactive),> 100 µM (inactive),> 100 µM (inactive),> 100 µM (inactive),> 100 µM (inactive),> 100 µM (inactive),> 100 µM (inactive),> 83.9 µM (inactive),> 100 µM (inactive),> 100 µM (inactive)
O=C1C2C(C(=O)N1O)N(Cc1ccccc1)C(=O)N2Cc1ccccc1 (stereo not given),–,> 100 µM (inactive),–,> 100 µM,> 100 µM (inactive),> 100 µM (inactive),–,> 100 µM (inactive),> 100 µM (inactive),> 100 µM (inactive),> 100 µM (inactive),> 100 µM (inactive),> 100 µM (inactive),–,> 100 µM (inactive),> 100 µM (inactive),> 100 µM (inactive),> 100 µM (inactive),> 100 µM (inactive),> 100 µM (inactive)
Cc1ccc(C(=O)N/N=C(\N=N\c2ccc([N+](=O)[O-])cc2)c2ccc(N(CCC#N)CCC#N)cc2C)cc1,47.1 µM (inactive),> 100 µM (inactive),97.1 µM (inactive),> 100 µM,30.2 µM (inactive),71.4 µM (inactive),83.6 µM (inactive),> 100 µM (inactive),79.3 µM (inactive),99.8 µM (inactive),> 100 µM (inactive),> 100 µM (inactive),97.1 µM (inactive),49.5 µM (inactive),> 100 µM (inactive),> 100 µM (inactive),> 100 µM (inactive),86.7 µM (inactive),–,–
C#CC1(O)c2ccccc2C(=O)c2ccccc21,–,> 100 µM (inactive),–,–,> 100 µM (inactive),> 100 µM (inactive),–,> 100 µM (inactive),> 100 µM (inactive),> 100 µM (inactive),> 100 µM (inactive),> 100 µM (inactive),> 100 µM (inactive),> 100 µM (inactive),> 100 µM (inactive),> 100 µM (inactive),> 100 µM (inactive),–,> 100 µM (inactive),–
N#CCCCCCOCCOCCOCCOCCOCCCCCC#N,–,> 100 µM (inactive),–,> 100 µM,> 100 µM (inactive),> 100 µM (inactive),–,> 100 µM (inactive),> 100 µM (inactive),> 100 µM (inactive),> 100 µM (inactive),–,> 100 µM (inactive),> 100 µM (inactive),> 100 µM (inactive),> 100 µM (inactive),> 100 µM (inactive),> 100 µM (inactive),> 100 µM (inactive),> 100 µM (inactive)
C/C(CC(=O)Nc1cccc(Cl)c1C)=N\NC(=O)c1ccncc1,–,–,–,–,> 100 µM (inactive),> 100 µM (inactive),–,> 100 µM (inactive),> 100 µM (inactive),–,> 100 µM (inactive),> 100 µM (inactive),> 100 µM (inactive),> 100 µM (inactive),–,> 100 µM (inactive),> 100 µM (inactive),> 100 µM (inactive),> 100 µM (inactive),> 100 µM (inactive)
C/C(=C\C(=O)Nc1ccc2[nH]nnc2c1)Nc1ccc2[nH]nnc2c1,–,> 100 µM (inactive),–,> 100 µM,> 100 µM (inactive),> 100 µM (inactive),–,> 100 µM (inactive),> 100 µM (inactive),> 100 µM (inactive),> 100 µM (inactive),> 100 µM (inactive),> 100 µM (inactive),–,> 100 µM (inactive),> 100 µM (inactive),> 100 µM (inactive),> 100 µM (inactive),> 100 µM (inactive),> 100 µM (inactive)
BrC1=CN2C[n+]3cc(Br)c4ccccc4c3N=C2c2ccccc21,16.9 µM (inactive),14 µM (inactive),16.6 µM (inactive),58.6 µM,22.5 µM (inactive),1.4 µM (inactive),4.42 µM (inactive),2.75 µM (inactive),13.8 µM (inactive),7.76 µM (inactive),8.55 µM (inactive),11.7 µM (inactive),2.26 µM (inactive),7.57 µM (inactive),19.7 µM (inactive),26.8 µM (inactive),4.54 µM (inactive),34.9 µM (inactive),–,–
CCOC(=O)C1(C(=O)OCC)OC(=O)NC2=C1CCCC2,–,–,–,–,> 100 µM (inactive),> 100 µM (inactive),–,> 100 µM (inactive),> 100 µM (inactive),–,> 100 µM (inactive),> 100 µM (inactive),> 100 µM (inactive),> 100 µM (inactive),–,> 100 µM (inactive),> 100 µM (inactive),> 100 µM (inactive),> 100 µM (inactive),> 100 µM (inactive)
CSc1nc(-c2ccccc2)c2c(n1)-c1ccccc1CC2,–,> 100 µM (inactive),–,–,> 100 µM (inactive),> 100 µM (inactive),–,> 100 µM (inactive),> 100 µM (inactive),> 100 µM (inactive),> 100 µM (inactive),–,> 100 µM (inactive),> 100 µM (inactive),> 100 µM (inactive),> 100 µM (inactive),> 100 µM (inactive),> 100 µM (inactive),78.5 µM (inactive),> 100 µM (inactive)
O=[N+]([O-])c1ccc(-n2nnc(C3=NCCCN3)c2-c2ccc(Cl)cc2)cc1,–,> 100 µM (inactive),–,> 100 µM,46.3 µM (inactive),> 100 µM (inactive),–,> 100 µM (inactive),> 100 µM (inactive),> 100 µM (inactive),> 100 µM (inactive),> 100 µM (inactive),32.7 µM (inactive),33.5 µM (inactive),> 100 µM (inactive),> 100 µM (inactive),> 100 µM (inactive),42.3 µM (inactive),> 100 µM (inactive),–
N#Cc1c(Cl)c2cccnc2n2c1nc1ccccc12,4.44 µM (inactive),1.9 µM (inactive),1.98 µM (inactive),2.04 µM,0.507 µM (active),16.6 µM (inactive),2.71 µM (inactive),1.84 µM (inactive),7.01 µM (inactive),2.66 µM (inactive),2.66 µM (inactive),2.35 µM (inactive),3.64 µM (inactive),8 µM (inactive),2.04 µM (inactive),1.67 µM (inactive),4.28 µM (inactive),1.81 µM (inactive),–,–
COc1ccc2c(c1)CCc1c(-c3n[nH]c4c3CCc3cc(OC)ccc3-4)n[nH]c1-2,–,24.4 µM (inactive),–,35.1 µM,27.5 µM (inactive),24 µM (inactive),–,37.9 µM (inactive),39 µM (inactive),–,37.1 µM (inactive),24.1 µM (inactive),33.8 µM (inactive),43.9 µM (inactive),57.4 µM (inactive),> 100 µM (inactive),49.1 µM (inactive),40.5 µM (inactive),47.5 µM (inactive),55.5 µM (inactive)

# Source: ChEMBL document CHEMBL1201862, “PubChem BioAssay data set” (2004)
